In ChEMBL document CHEMBL1129165, “6-Deoxy-6-hydroxymethyl scyllo-inositol 1,2,4-trisphosphate: A potent agonist at the inositol 1,4,5-trisphosphate receptor” (Bioorg Med Chem Lett, 1996):

Species on record: Oryctolagus cuniculus
Assay: Compound was tested for its ability to release [Ca2+] from permeabilised rabbit platelets.
Assay type: functional, organism-based

| EC50 (Oryctolagus cuniculus) | EC50 | Compound |
| --- | --- | --- |
| 440 nM | – | O=P(O)(O)OC1[C@@H](O)C(CO)C(OP(=O)(O)O)[C@H](OP(=O)(O)O)[C@@H]1O (stereo partly drawn) |
| – | 400 nM | O=P(O)(O)O[C@@H]1[C@@H](O)[C@@H](O)[C@@H](OP(=O)(O)O)C(O)[C@H]1OP(=O)(O)O (single isomer, unassigned) [INS(1,4,5)P3] |
| – | 1670 nM | O=P(O)(O)O[C@H]1C(O)[C@@H](OP(=O)(O)O)[C@H](OP(=O)(O)O)[C@@H](O)C1O (single isomer, unassigned) [INS(1,4,5)P3] |
